In patent US8426406B2, “Glucocorticoid receptor agonist comprising 2,2,4-trimethyl-6-phenyl-1,2-dihydroquinoline derivatives having substituted oxy group” (Santen Pharmaceutical Co., Ltd., priority 2008, dated 2013):

test system: IL-6 production induced by lipopolysaccharide (LPS) in human corneal epithelial cells; test: Evaluation test for GR agonist activity: inhibition of LPS-induced IL-6 production in human corneal epithelial cells (HCE-T); assay type: cell-based; conditions: Corneal epithelial cell, 10 μL of 100 μM test compound solution per well, 4 hours incubation, efficacy relative to DEX
Protocol: In order to evaluate a GR agonist activity of the present compound, the inhibitory effects on the IL-6 production induced by lipopolysaccharide (LPS) in human corneal epithelial cells. IL-6 levels in the conditioned medium were measured using the HTRF human IL-6 Kit (boehringer-Ingelheim, Cat No. 62IL6PEB), and the procedure was carried out according to the protocol attached to the kit. Hereinafter, the specific method will be described.
LPS solution: After LPS was dissolved in phosphate buffer solution (hereinafter referred to as PBS(−)), the resulting solution was diluted with 10% FBS-DMEM/F12 medium, whereby a 1 μg/mL LPS solution was prepared.
After a test compound was dissolved in dimethylsulfoxide (hereinafter referred to as DMSO), the resulting solution was diluted with 10% FBS-DMEM/F12 medium, whereby a 100 μM test compound solution was prepared. A 100 μM DEX solution was prepared by the same method, and the inhibitory ratio of IL-6 production of DEX was evaluated to use for calculating efficacy (% DEX).
Used cell: SV40-immortalized human corneal epithelial cells (HCE-T) (RIKEN)
1) HCE-T cells were harvested, and seeded at 2.0×10^4 cells/0.1 mL/well in a 96-well plate.
2) After incubation overnight, the medium was removed and a 80 μL of new 10% FBS-DMEM/Ham's F12 medium was added into each well.
3) A 10 μL of test compounds solution was added into each well.
4) A 10 μL of LPS solution was added into each well.
5) As a negative control, a 10 μL of 10% FBS-DMEM/Ham's F12 medium was added into each well instead of a test compound solution and a LPS solution.
6) As a positive control, a 10 μL of 10% FBS-DMEM/Ham's F12 medium containing 1% DMSO was added into each well instead of a test compound solution.
7) After 4 hours incubation, supernatants were collected and IL-6 levels in the supernatants were quantitated using the HTRF human IL-6 Kit.
8) The inhibition ratio of IL-6 production (%) was calculated according to the following equation.
The inhibition ratio of IL-6 production (%) was calculated according to the following equation. The inhibition ratio of IL-6 production(%)=100×[1−(IL-6 level in each group−mean value of IL-6 level in negative control)/(mean value of IL-6 level in positive control−mean value of IL-6 level in negative control)](%)
Furthermore, the inhibition ratio of IL-6 production (efficacy (% DEX)) was also calculated according to the following equation. Efficacy(% DEX)=100×{(mean value of IL-6 inhibition in compound-treated group)/(mean value of IL-6 inhibition in DEX-treated group)}(%) (Result and Discussion)

| SMILES | Emax [%] |
| --- | --- |
| CCCS(=O)(=O)Oc1ccc(-c2ccc3c(c2COc2cc(F)ccc2C)C(C)=CC(C)(C)N3)c(OC)c1 [Compound 4-3, 5-(5-Fluoro-2-methylphenoxymethyl)-6-(2-methoxy-4-propylsulfonyloxyphenyl)-2,2,4-trimethyl-1,2-dihydroquinoline] | 81 |
| COc1cc(OC(=O)c2ccc(C)nc2)ccc1-c1ccc2c(c1COc1cc(F)ccc1C)C(C)=CC(C)(C)N2 [Compound 1-55, 5-(5-Fluoro-2-methylphenoxymethyl)-6-[2-methoxy-4-(6-methylpyridin-3-ylcarbonyloxy)phenyl]-2,2,4-trimethyl-1,2-dihydroquinoline] | 76 |
| COc1cc(OC(=O)c2ccoc2)ccc1-c1ccc2c(c1COC(=O)c1ccc(C)s1)C(C)=CC(C)(C)N2 [Compound 1-148, 6-[4-(Furan-3-ylcarbonyloxy)-2-methoxyphenyl]-5-(5-methylthiophen-2-ylcarbonyloxymethyl)-2,2,4-trimethyl-1,2-dihydroquinoline] | 86 |
| COc1cc(OC(=O)c2ccco2)ccc1-c1ccc2c(c1CNc1cc(F)ccc1C)C(C)=CC(C)(C)N2 [Compound 1-106, 5-(5-Fluoro-2-methylphenylaminomethyl)-6-[4-(furan-2-ylcarbonyloxy)-2-methoxyphenyl]-2,2,4-trimethyl-1,2-dihydroquinoline] | 82 |
| COc1cc(OC(=O)c2ccccc2SC)ccc1-c1ccc2c(c1COC(=O)c1ccc(C)s1)C(C)=CC(C)(C)N2 [Compound 1-151] | 90 |
| COc1ccccc1NCc1c(-c2ccc(OC(=O)c3ccccc3)cc2OC)ccc2c1C(C)=CC(C)(C)N2 [Compound 1-92, 6-(4-Benzoyloxy-2-methoxyphenyl)-5-(2-methoxyphenylaminomethyl)-2,2,4-trimethyl-1,2-dihydroquinoline] | 79 |
| CCCCS(=O)(=O)Oc1ccc(-c2ccc3c(c2COc2cc(F)ccc2C)C(C)=CC(C)(C)N3)c(OC)c1 [Compound 4-6, 6-(4-Butylsulfonyloxy-2-methoxyphenyl)-5-(5-fluoro-2-methylphenoxymethyl)-2,2,4-trimethyl-1,2-dihydroquinoline] | 82 |
| COc1cc(OS(=O)(=O)C2CC2)ccc1-c1ccc2c(c1COc1cc(F)ccc1C)C(C)=CC(C)(C)N2 [Compound 4-14, 6-(4-Cyclopropylsulfonyloxy-2-methoxyphenyl)-5-(5-fluoro-2-methylphenoxymethyl)-2,2,4-trimethyl-1,2-dihydroquinoline] | 80 |
| COc1cc(OC(=O)N(C)C)ccc1-c1ccc2c(c1COc1cc([N+](=O)[O-])ccc1C)C(C)=CC(C)(C)N2 [Compound 6-33, 6-(4-Dimethylaminocarbonyloxy-2-methoxyphenyl)-5-(2-methyl-5-nitrophenoxymethyl)-2,2,4-trimethyl-1,2-dihydroquinoline] | 78 |
| COc1cc(OC(=O)c2ccco2)ccc1-c1ccc2c(c1COC(=O)c1ccc(Br)s1)C(C)=CC(C)(C)N2 [Compound 1-162, 5-(5-Bromothiophen-2-ylcarbonyloxymethyl)-6-[4-(furan-2-ylcarbonyloxy)-2-methoxyphenyl]-2,2,4-trimethyl-1,2-dihydroquinoline] | 81 |
| COc1cc(OC(=O)c2ccccc2Cl)ccc1-c1ccc2c(c1CNc1cc(F)ccc1C)C(C)=CC(C)(C)N2 [Compound 1-98, 6-[4-(2-Chlorobenzoyloxy)-2-methoxyphenyl]-5-(5-fluoro-2-methylphenylaminomethyl)-2,2,4-trimethyl-1,2-dihydroquinoline] | 78 |
| COc1cc(OC(=O)c2occc2C)ccc1-c1ccc2c(c1CNc1cc(F)ccc1C)C(C)=CC(C)(C)N2 [Compound 1-126, 5-(5-Fluoro-2-methylphenylaminomethyl)-6-[2-methoxy-4-(3-methylfuran-2-ylcarbonyloxy)phenyl]-2,2,4-trimethyl-1,2-dihydroquinoline] | 81 |
| COc1cc(OC(=O)c2cccnc2OC)ccc1-c1ccc2c(c1COC(=O)c1ccc(C)s1)C(C)=CC(C)(C)N2 [Compound 1-166, 6-[2-Methoxy-4-(2-methoxypyridin-3-ylcarbonyloxy)phenyl]-5-(5-methylthiophen-2-ylcarbonyloxymethyl)-2,2,4-trimethyl-1,2-dihydroquinoline] | 91 |
| COc1cc(OC(=O)c2ccccc2[N+](=O)[O-])ccc1-c1ccc2c(c1COC(=O)c1ccc(C)s1)C(C)=CC(C)(C)N2 [Compound 1-170, 6-[2-Methoxy-4-(2-nitrobenzoyloxy)phenyl]-5-(5-methylthiophen-2-ylcarbonyloxymethyl)-2,2,4-trimethyl-1,2-dihydroquinoline] | 77 |
| COc1cc(OS(=O)(=O)C2CCCC2)ccc1-c1ccc2c(c1COC(=O)c1ccc(C)s1)C(C)=CC(C)(C)N2 [Compound 4-30, 6-(4-Cyclopentylsulfonyloxy-2-methoxyphenyl)-5-(5-methylthiophen-2-ylcarbonyloxymethyl)-2,2,4-trimethyl-1,2-dihydroquinoline] | 93 |
| COc1cc(OC(=O)c2ccncc2F)ccc1-c1ccc2c(c1COc1cc(F)ccc1C)C(C)=CC(C)(C)N2 [Compound 1-69, 5-(5-Fluoro-2-methylphenoxymethyl)-6-[4-(3-fluoropyridin-4-ylcarbonyloxy)-2-methoxyphenyl]-2,2,4-trimethyl-1,2-dihydroquinoline] | 72 |
| COc1cc(OC(=O)c2ccccc2)ccc1-c1ccc2c(c1COC(=O)c1ccc(C)s1)C(C)=CC(C)(C)N2 [Compound 1-142, 6-(4-Benzoyloxy-2-methoxyphenyl)-5-(5-methylthiophen-2-ylcarbonyloxymethyl)-2,2,4-trimethyl-1,2-dihydroquinoline] | 97 |
| COc1cc(OC(=O)c2ccc(C)o2)ccc1-c1ccc2c(c1COc1cc(F)ccc1C)C(C)=CC(C)(C)N2 [Compound 1-48, 5-(5-Fluoro-2-methylphenoxymethyl)-6-[2-methoxy-4-(5-methylfuran-2-ylcarbonyloxy)phenyl]-2,2,4-trimethyl-1,2-dihydroquinoline] | 73 |
| COc1cc(OC(=O)c2ccccc2F)ccc1-c1ccc2c(c1COc1cc(F)ccc1C)C(C)=CC(C)(C)N2 [Compound 1-45, 6-[4-(2-Fluorobenzoyloxy)-2-methoxyphenyl]-5-(5-fluoro-2-methylphenoxymethyl)-2,2,4-trimethyl-1,2-dihydroquinoline] | 77 |
| COc1cc(OC(=O)c2ccccc2OC(C)=O)ccc1-c1ccc2c(c1COc1cc(F)ccc1C)C(C)=CC(C)(C)N2 [Compound 1-36, 6-[4-(2-Acetoxybenzoyloxy)-2-methoxyphenyl]-5-(5-fluoro-2-methylphenoxymethyl)-2,2,4-trimethyl-1,2-dihydroquinoline] | 75 |
| COc1ccccc1NCc1c(-c2ccc(OC(=O)c3cccnc3C)cc2OC)ccc2c1C(C)=CC(C)(C)N2 [Compound 1-91, 6-[2-Methoxy-4-(2-methylpyridin-3-ylcarbonyloxy)phenyl]-5-(2-methoxyphenylaminomethyl)-2,2,4-trimethyl-1,2-dihydroquinoline] | 92 |
| COc1cc(OC(=O)c2ccc(Cl)cc2)ccc1-c1ccc2c(c1COC(=O)c1ccc(C)s1)C(C)=CC(C)(C)N2 [Compound 1-141, 6-[4-(4-Chlorobenzoyloxy)-2-methoxyphenyl]-5-(5-methylthiophen-2-ylcarbonyloxymethyl)-2,2,4-trimethyl-1,2-dihydroquinoline] | 78 |
| COc1cc(OC(=O)c2occc2C)ccc1-c1ccc2c(c1COc1cc(F)ccc1C)C(C)=CC(C)(C)N2 [Compound 1-57, 5-(5-Fluoro-2-methylphenoxymethyl)-6-[2-methoxy-4-(3-methylfuran-2-ylcarbonyloxy)phenyl]-2,2,4-trimethyl-1,2-dihydroquinoline] | 86 |
| COc1cc(OC(=O)c2ccc(C)nc2)ccc1-c1ccc2c(c1COC(=O)c1ccc(C)s1)C(C)=CC(C)(C)N2 [Compound 1-128, 6-[2-Methoxy-4-(6-methylpyridin-3-ylcarbonyloxy)phenyl]-5-(5-methylthiophen-2-ylcarbonyloxymethyl)-2,2,4-trimethyl-1,2-dihydroquinoline] | 79 |
| COC(=O)c1cccc(C(=O)Oc2ccc(-c3ccc4c(c3COc3cc(F)ccc3C)C(C)=CC(C)(C)N4)c(OC)c2)c1 [Compound 1-54, 5-(5-Fluoro-2-methylphenoxymethyl)-6-[2-methoxy-4-(3-methoxycarbonylbenzoyloxy)phenyl]-2,2,4-trimethyl-1,2-dihydroquinoline] | 75 |
